Test results reported in patent EP4745137A1 (Gluetacs Therapeutics (Shanghai) Co., Ltd., priority 2023, dated 2025).

How the values were obtained:
[1] = molecular target: T1, human Cereblon WT GST-tagged protein (Homo sapiens, UniProt Q96SW2); experiment: CRBN-binding affinity by HTRF (CEREBLON BINDING kit); settings: HTRF inhibitory activity, CEREBLON BINDING kit; read-out: HTRF IC50
T1 construct: purchased CISBIO 64BDCRBNPEH

[2] = molecular target: T2, IKZF3 (Homo sapiens, UniProt Q96SW2+Q9UKT9); experiment: Western-blot assay of substrate protein degradation in hPBMCs, IKZF3; assay type: cell-based; settings: 24 hours of compound treatment, compounds tested at 50 nM and 500 nM (concentration of the table not stated)
T2 construct: endogenous in cells; host or cells: hPBMCs (Milecell Biotechnologies)
T2 sequence (Q9UKT9 whole entry): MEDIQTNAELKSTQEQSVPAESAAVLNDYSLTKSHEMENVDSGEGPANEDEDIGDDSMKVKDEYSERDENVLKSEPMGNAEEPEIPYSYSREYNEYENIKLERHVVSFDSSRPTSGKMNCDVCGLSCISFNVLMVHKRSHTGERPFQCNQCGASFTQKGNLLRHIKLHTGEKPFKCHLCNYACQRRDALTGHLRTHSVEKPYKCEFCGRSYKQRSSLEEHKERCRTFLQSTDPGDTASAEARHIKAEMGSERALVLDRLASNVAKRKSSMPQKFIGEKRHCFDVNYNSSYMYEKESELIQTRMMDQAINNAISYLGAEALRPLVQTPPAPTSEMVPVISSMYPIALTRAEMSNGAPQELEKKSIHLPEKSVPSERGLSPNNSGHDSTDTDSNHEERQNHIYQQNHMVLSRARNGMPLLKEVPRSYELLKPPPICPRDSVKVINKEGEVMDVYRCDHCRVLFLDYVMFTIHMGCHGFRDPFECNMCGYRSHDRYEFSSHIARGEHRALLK
T2 sequence (Q96SW2 whole entry): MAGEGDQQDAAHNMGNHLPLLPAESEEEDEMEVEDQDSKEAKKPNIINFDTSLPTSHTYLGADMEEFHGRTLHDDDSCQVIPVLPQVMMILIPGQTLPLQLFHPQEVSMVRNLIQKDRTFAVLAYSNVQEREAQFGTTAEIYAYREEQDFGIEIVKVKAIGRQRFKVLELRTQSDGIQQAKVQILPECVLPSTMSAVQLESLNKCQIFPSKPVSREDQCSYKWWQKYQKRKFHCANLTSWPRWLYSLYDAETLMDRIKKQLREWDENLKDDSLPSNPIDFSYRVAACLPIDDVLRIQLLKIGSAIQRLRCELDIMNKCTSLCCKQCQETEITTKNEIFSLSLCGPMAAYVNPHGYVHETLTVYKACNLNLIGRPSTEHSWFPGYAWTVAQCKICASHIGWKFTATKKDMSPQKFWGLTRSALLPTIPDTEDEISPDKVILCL
T2 sequence (Q16531 whole entry partner): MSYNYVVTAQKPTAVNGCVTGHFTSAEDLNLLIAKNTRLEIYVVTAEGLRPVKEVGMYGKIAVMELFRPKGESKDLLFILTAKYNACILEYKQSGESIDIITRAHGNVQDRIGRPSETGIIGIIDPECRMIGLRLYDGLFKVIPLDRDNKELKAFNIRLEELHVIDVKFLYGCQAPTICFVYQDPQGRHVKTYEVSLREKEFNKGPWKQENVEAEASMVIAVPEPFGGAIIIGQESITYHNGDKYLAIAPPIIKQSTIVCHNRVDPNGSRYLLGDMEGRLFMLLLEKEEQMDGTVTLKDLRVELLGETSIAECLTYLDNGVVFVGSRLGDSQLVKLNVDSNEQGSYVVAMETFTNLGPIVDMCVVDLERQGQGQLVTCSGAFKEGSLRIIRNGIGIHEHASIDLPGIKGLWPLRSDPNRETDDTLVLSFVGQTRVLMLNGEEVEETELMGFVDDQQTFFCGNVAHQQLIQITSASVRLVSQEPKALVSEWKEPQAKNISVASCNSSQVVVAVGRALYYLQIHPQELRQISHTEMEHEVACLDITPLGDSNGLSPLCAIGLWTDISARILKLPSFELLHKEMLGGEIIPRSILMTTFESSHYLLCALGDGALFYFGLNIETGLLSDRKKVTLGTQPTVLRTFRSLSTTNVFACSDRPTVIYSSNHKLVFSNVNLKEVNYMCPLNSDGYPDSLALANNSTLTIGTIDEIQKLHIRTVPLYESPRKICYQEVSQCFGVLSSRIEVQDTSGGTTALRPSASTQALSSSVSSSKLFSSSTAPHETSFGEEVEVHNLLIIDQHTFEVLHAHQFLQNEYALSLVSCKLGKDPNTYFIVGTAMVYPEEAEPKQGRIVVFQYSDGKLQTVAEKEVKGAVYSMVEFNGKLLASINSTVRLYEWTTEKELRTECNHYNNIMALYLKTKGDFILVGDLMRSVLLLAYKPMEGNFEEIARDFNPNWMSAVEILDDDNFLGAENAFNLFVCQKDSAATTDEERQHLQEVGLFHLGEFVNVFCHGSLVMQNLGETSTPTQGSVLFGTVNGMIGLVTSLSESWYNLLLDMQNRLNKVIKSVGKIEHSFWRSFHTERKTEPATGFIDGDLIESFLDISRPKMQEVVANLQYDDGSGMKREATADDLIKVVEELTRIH

[3] = molecular target: T3, IKZF1 (Homo sapiens, UniProt Q13422+Q96SW2); experiment: Western-blot assay of substrate protein degradation in hPBMCs, IKZF1; assay type: cell-based; settings: 24 hours of compound treatment, compounds tested at 50 nM and 500 nM (concentration of the table not stated)
T3 construct: endogenous in cells; host or cells: hPBMCs (Milecell Biotechnologies)
T3 sequence (Q13422 whole entry): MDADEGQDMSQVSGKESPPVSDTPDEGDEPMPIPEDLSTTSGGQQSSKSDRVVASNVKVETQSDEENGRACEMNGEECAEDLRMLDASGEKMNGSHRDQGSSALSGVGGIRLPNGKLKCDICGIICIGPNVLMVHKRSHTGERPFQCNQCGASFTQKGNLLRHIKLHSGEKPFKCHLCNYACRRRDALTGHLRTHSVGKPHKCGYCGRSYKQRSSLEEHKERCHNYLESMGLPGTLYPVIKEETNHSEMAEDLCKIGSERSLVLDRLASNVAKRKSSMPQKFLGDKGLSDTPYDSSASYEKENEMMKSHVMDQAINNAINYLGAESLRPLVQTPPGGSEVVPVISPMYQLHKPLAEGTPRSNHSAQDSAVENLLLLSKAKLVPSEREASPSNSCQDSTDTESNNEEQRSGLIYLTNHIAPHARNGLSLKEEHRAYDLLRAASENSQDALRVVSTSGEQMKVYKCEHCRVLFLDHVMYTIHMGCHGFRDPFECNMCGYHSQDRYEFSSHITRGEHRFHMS
T3 sequence (Q96SW2 whole entry): as the sequence (Q96SW2 whole entry) above
T3 sequence (Q16531 whole entry partner): as the sequence (Q16531 whole entry partner) above

[4] = molecular target: T4, GSPT1 (Homo sapiens, UniProt P15170+Q96SW2); experiment: Western-blot assay of substrate protein degradation in hPBMCs, GSPT1; assay type: cell-based; settings: 24 hours of compound treatment, compounds tested at 50 nM and 500 nM (concentration of the table not stated)
T4 construct: endogenous in cells; host or cells: hPBMCs (Milecell Biotechnologies)
T4 sequence (P15170 whole entry): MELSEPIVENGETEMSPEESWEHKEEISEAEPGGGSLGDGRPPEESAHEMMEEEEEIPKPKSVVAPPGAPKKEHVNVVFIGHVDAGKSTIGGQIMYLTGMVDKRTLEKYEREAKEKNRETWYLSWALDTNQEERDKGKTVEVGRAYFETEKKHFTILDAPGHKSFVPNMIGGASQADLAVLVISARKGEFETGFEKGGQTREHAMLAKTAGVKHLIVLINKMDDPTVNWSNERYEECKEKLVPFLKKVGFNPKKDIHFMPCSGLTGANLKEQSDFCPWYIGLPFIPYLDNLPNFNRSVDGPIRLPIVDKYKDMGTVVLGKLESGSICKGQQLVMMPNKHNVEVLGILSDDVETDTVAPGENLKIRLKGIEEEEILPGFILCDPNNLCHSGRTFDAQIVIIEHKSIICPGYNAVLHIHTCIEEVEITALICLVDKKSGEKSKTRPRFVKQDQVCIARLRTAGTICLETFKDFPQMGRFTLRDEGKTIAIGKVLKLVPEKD
T4 sequence (Q96SW2 whole entry): as the sequence (Q96SW2 whole entry) above
T4 sequence (Q16531 whole entry partner): as the sequence (Q16531 whole entry partner) above

[5] = molecular target: T5, CK1α (Homo sapiens, UniProt P48729+Q96SW2); experiment: Western-blot assay of substrate protein degradation in hPBMCs, CK1α; assay type: cell-based; settings: 24 hours of compound treatment, compounds tested at 50 nM and 500 nM (concentration of the table not stated)
T5 construct: endogenous in cells; host or cells: hPBMCs (Milecell Biotechnologies)
T5 sequence (P48729 whole entry): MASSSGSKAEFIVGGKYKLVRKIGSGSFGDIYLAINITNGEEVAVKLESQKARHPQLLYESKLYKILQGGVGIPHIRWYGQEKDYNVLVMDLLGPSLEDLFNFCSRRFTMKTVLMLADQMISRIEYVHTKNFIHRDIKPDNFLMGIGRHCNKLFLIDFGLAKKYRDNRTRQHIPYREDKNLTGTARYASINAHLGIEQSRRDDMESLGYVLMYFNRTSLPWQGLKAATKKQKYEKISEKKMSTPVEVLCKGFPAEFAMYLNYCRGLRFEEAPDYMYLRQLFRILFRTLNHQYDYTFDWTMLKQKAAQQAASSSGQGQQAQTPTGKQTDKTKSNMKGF
T5 sequence (Q96SW2 whole entry): as the sequence (Q96SW2 whole entry) above
T5 sequence (Q16531 whole entry partner): as the sequence (Q16531 whole entry partner) above

[6] = system: MM.1R; experiment: Tumor cell proliferation inhibition (CellTiter-Meiluncell Luminescent Cell Viability Assay), MM.1R; settings: Homo sapiens, 96 h, read-out: inhibitory activity (IC50, nM) against tumor cells proliferation, MM.1R
Protocol: (§1) The tumor cells used herein were cultured in a cell culture medium listed in table 2 at 37°C in an incubator with 5% CO2. Prior to experimentation, all cell lines used were correctly identified by STR profiling, and tested negative for mycoplasma contamination using a mycoplasma detection kit through routine screenings.
(§2) On the following day, the test compounds of the present disclosure were subjected to serial dilution. […] Subsequently, 0.5 µL of the test compound dilution was transferred into the 96-well plate containing the cells, with each well containing 100 µL of cell culture medium. […] Into the 96-well plate, the diluted test compounds and corresponding detection reagents were added, resulting in final test compound concentrations of 500 nM and 10 nM, respectively. The experimental procedure is described below using the diluted 2 µM test compound as an example.
(§3) After the cells were treated with the compounds of the present disclosure for a specified period (the treatment durations were shown in Table 3), the cell viability assay reagent was added to the culture medium according to the kit's instructions to determine cell viability. […] All controls were treated using the same procedure as the compounds of the present disclosure. The growth inhibition curves for the compounds of the present disclosure were plotted using Prism GraphPad software, and the IC50 values were calculated therefrom.

[7] = system: Human acute T lymphocytic leukemia cells (Molt-4); experiment: Tumor cell proliferation inhibition (CellTiter-Meiluncell Luminescent Cell Viability Assay), Molt-4; settings: MOLT-4, 96 h, read-out: inhibitory activity (IC50, nM) against tumor cells proliferation, Molt 4
[8] = system: CCRF-CEM; experiment: Tumor cell proliferation inhibition (CellTiter-Meiluncell Luminescent Cell Viability Assay), CCRF-CEM; settings: Homo sapiens, 96 h, read-out: inhibitory activity (IC50, nM) against tumor cells proliferation, CCRF-CEM
[9] = system: Vcap; experiment: Tumor cell proliferation inhibition (CellTiter-Meiluncell Luminescent Cell Viability Assay), Vcap; settings: Homo sapiens, 96 h, read-out: inhibitory activity (IC50, nM) against tumor cells proliferation, Vcap
Protocol: as §1, §2, §3

[10] = system: Jurkat; experiment: Tumor cell proliferation inhibition (CellTiter-Meiluncell Luminescent Cell Viability Assay), Jurkat; settings: Homo sapiens, 96 h, read-out: inhibitory activity (IC50, nM) against tumor cells proliferation, Jurkat
[11] = molecular target: T6, WEE1 (Homo sapiens, UniProt P30291+Q96SW2); experiment: Western-blot assay of substrate protein degradation in hPBMCs, WEE1; assay type: cell-based; settings: 24 hours of compound treatment, compounds tested at 50 nM and 500 nM (concentration of the table not stated)
T6 construct: endogenous in cells; host or cells: hPBMCs (Milecell Biotechnologies)

[12] = system: CAL-62; experiment: Tumor cell proliferation inhibition (CellTiter-Meiluncell Luminescent Cell Viability Assay), CAL-62; settings: Homo sapiens, CAL-62, 96 h, read-out: inhibitory activity (IC50, nM) against tumor cells proliferation, CAL-62
[13] = molecular target: T7, IKZF2 (Homo sapiens, UniProt Q96SW2+Q9UKS7); experiment: Western-blot assay of substrate protein degradation in hPBMCs, IKZF2; assay type: cell-based; settings: 24 hours of compound treatment, compounds tested at 50 nM and 500 nM (concentration of the table not stated)
T7 construct: endogenous in cells; host or cells: hPBMCs (Milecell Biotechnologies)
T7 sequence (Q9UKS7 whole entry): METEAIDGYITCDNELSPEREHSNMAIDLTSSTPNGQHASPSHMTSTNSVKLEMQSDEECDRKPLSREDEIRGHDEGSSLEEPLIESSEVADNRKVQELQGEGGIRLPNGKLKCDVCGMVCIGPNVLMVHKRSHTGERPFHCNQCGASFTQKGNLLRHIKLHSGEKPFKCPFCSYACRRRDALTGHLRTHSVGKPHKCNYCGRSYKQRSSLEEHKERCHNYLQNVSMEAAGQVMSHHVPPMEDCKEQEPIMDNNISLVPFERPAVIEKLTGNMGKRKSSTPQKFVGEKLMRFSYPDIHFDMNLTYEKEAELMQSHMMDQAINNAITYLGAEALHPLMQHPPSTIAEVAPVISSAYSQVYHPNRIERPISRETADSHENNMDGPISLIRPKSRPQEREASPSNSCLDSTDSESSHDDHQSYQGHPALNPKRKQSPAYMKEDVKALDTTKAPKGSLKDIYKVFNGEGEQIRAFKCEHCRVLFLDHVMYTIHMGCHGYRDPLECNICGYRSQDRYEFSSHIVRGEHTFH
T7 sequence (Q96SW2 whole entry): as the sequence (Q96SW2 whole entry) above
T7 sequence (Q16531 whole entry partner): as the sequence (Q16531 whole entry partner) above

[14] = system: NCI-H1975; experiment: Tumor cell proliferation inhibition (CellTiter-Meiluncell Luminescent Cell Viability Assay), NCI-H1975; settings: Homo sapiens, NCI-H1975, 96 h, read-out: inhibitory activity (IC50, nM) against tumor cells proliferation, H1975
Protocol: as §1, §2, §3

[15] = system: Human breast cancer cells (MDA-MB-231); experiment: Tumor cell proliferation inhibition (CellTiter-Meiluncell Luminescent Cell Viability Assay), MDA-MB-231; settings: MDA-MB-231, 96 h, read-out: inhibitory activity (IC50, nM) against tumor cells proliferation, MDA-MB-231

T1 sequence (Q96SW2 whole entry): as the sequence (Q96SW2 whole entry) above

## O=C1CCC(N2Cc3cc(CN4CCN(c5cc(Cl)ccn5)CC4)ccc3C2=O)C(=O)N1 (stereo not shown) [GT-04430, 3-(5-((4-(4-chloropyridin-2-yl)piperazin-1-yl)methyl)-1-oxoisoindolin-2-yl)piperidine-2,6-dione]
[1]
  IC50: 500 to 1000 nM
[2]
  IKZF3 substrate protein remaining %: A (0% ≤ substrate protein remaining % ≤ 80%)
[3]
  IKZF 1 substrate protein remaining %: A (0% ≤ substrate protein remaining % ≤ 80%)
[4]
  GSPT1 substrate protein remaining %: A (0% ≤ substrate protein remaining % ≤ 80%)
[5]
  CK1a substrate protein remaining %: B (80%< substrate protein remaining %≤ 100%)
[6]
  IC50: 50 to 100 nM
[7]
  IC50: 10 to 50 nM
[8]
  IC50: 10 to 50 nM
[9]
  IC50: 100 to 500 nM
[10]
  IC50: 10 to 50 nM
[11]
  Weel substrate protein remaining %: B (80%< substrate protein remaining %≤ 100%)
[12]
  IC50: 50 to 100 nM
[13]
  IKZF2 substrate protein remaining %: A (0% ≤ substrate protein remaining % ≤ 80%)

## O=C1CCC(N2Cc3cc(CN4CCC(c5ccc(Br)cc5)CC4)ccc3C2=O)C(=O)N1 (stereo not shown) [GT-04493, 3-(5-((4-(4-bromophenyl)piperidin-1-yl)methyl)-1-oxoisoindolin-2-yl)piperidine-2,6-dione]
[1]
  IC50: 500 to 1000 nM
[2]
  IKZF3 substrate protein remaining %: B (80%< substrate protein remaining %≤ 100%)
[3]
  IKZF 1 substrate protein remaining %: B (80%< substrate protein remaining %≤ 100%)
[4]
  GSPT1 substrate protein remaining %: A (0% ≤ substrate protein remaining % ≤ 80%)
[5]
  CK1a substrate protein remaining %: A (0% ≤ substrate protein remaining % ≤ 80%)
[6]
  IC50: 10 to 50 nM
[8]
  IC50: 10 to 50 nM
[9]
  IC50: 100 to 500 nM
[10]
  IC50: 10 to 50 nM
[11]
  Weel substrate protein remaining %: A (0% ≤ substrate protein remaining % ≤ 80%)
[12]
  IC50: 10 to 50 nM
[13]
  IKZF2 substrate protein remaining %: A (0% ≤ substrate protein remaining % ≤ 80%)

## O=C1CCC(N2Cc3cc(CN4CCC(c5cccc(F)c5F)CC4)ccc3C2=O)C(=O)N1 (stereo not shown) [GT-04552, 3-(5-((4-(2,3-difluorophenyl)piperidin-1-yl)methyl)-1-oxoisoindolin-2-yl)piperidine-2,6-dione]
[1]
  IC50: 1000 to 1500 nM
[2]
  IKZF3 substrate protein remaining %: A (0% ≤ substrate protein remaining % ≤ 80%)
[3]
  IKZF 1 substrate protein remaining %: A (0% ≤ substrate protein remaining % ≤ 80%)
[4]
  GSPT1 substrate protein remaining %: A (0% ≤ substrate protein remaining % ≤ 80%)
[5]
  CK1a substrate protein remaining %: A (0% ≤ substrate protein remaining % ≤ 80%)
[6]
  IC50: 5 to 10 nM
[7]
  IC50: 1 to 5 nM
[14]
  IC50: 10 to 50 nM
[10]
  IC50: 1 to 5 nM
[11]
  Weel substrate protein remaining %: A (0% ≤ substrate protein remaining % ≤ 80%)
[15]
  IC50: 50 to 100 nM
[12]
  IC50: 5 to 10 nM
[13]
  IKZF2 substrate protein remaining %: A (0% ≤ substrate protein remaining % ≤ 80%)

## O=C1CCC(N2Cc3cc(CN4CCC(c5cccc(F)c5Cl)CC4)ccc3C2=O)C(=O)N1 (stereo not shown) [GT-04553, 3-(5-((4-(2-chloro-3-fluorophenyl)piperidin-1-yl)methyl)-1-oxoisoindolin-2-yl)piperidine-2,6-dione]
[1]
  IC50: 1000 to 1500 nM
[2]
  IKZF3 substrate protein remaining %: A (0% ≤ substrate protein remaining % ≤ 80%)
[3]
  IKZF 1 substrate protein remaining %: A (0% ≤ substrate protein remaining % ≤ 80%)
[4]
  GSPT1 substrate protein remaining %: A (0% ≤ substrate protein remaining % ≤ 80%)
[5]
  CK1a substrate protein remaining %: A (0% ≤ substrate protein remaining % ≤ 80%)
[6]
  IC50: 1 to 5 nM
[7]
  IC50: 1 to 5 nM
[14]
  IC50: 10 to 50 nM
[10]
  IC50: 1 to 5 nM
[11]
  Weel substrate protein remaining %: A (0% ≤ substrate protein remaining % ≤ 80%)
[15]
  IC50: 10 to 50 nM
[12]
  IC50: 1 to 5 nM
[13]
  IKZF2 substrate protein remaining %: A (0% ≤ substrate protein remaining % ≤ 80%)

## O=C1CCC(N2Cc3cc(CN4CC=C(c5cccc(F)c5Cl)CC4)ccc3C2=O)C(=O)N1 (stereo not shown) [GT-04554, 3-(5-((4-(2-chloro-3-fluorophenyl)-3,6-dihydropyridin-1(2H)-yl)methyl)-1-oxoisoindolin-2-yl)piperidine-2,6-dione]
[1]
  IC50: 500 to 1000 nM
[2]
  IKZF3 substrate protein remaining %: A (0% ≤ substrate protein remaining % ≤ 80%)
[3]
  IKZF 1 substrate protein remaining %: A (0% ≤ substrate protein remaining % ≤ 80%)
[4]
  GSPT1 substrate protein remaining %: A (0% ≤ substrate protein remaining % ≤ 80%)
[5]
  CK1a substrate protein remaining %: A (0% ≤ substrate protein remaining % ≤ 80%)
[6]
  IC50: < 1 nM
[7]
  IC50: < 1 nM
[14]
  IC50: 1 to 5 nM
[10]
  IC50: < 1 nM
[11]
  Weel substrate protein remaining %: A (0% ≤ substrate protein remaining % ≤ 80%)
[15]
  IC50: 1 to 5 nM
[12]
  IC50: < 1 nM
[13]
  IKZF2 substrate protein remaining %: A (0% ≤ substrate protein remaining % ≤ 80%)

## O=C1CCC(N2Cc3cc(CN4CC=C(c5ccnc(F)c5F)CC4)ccc3C2=O)C(=O)N1 (stereo not shown) [GT-04555, 3-(5-((2',3'-difluoro-3,6-dihydro-[4,4'-bipyridin]-1(2H)-yl)methyl)-1-oxoisoindolin-2-yl)piperidine-2,6-dione]
[1]
  IC50: 500 to 1000 nM
[2]
  IKZF3 substrate protein remaining %: A (0% ≤ substrate protein remaining % ≤ 80%)
[3]
  IKZF 1 substrate protein remaining %: A (0% ≤ substrate protein remaining % ≤ 80%)
[4]
  GSPT1 substrate protein remaining %: A (0% ≤ substrate protein remaining % ≤ 80%)
[5]
  CK1a substrate protein remaining %: A (0% ≤ substrate protein remaining % ≤ 80%)
[6]
  IC50: 5 to 10 nM
[7]
  IC50: 10 to 50 nM
[14]
  IC50: 100 to 500 nM
[10]
  IC50: 5 to 10 nM
[11]
  Weel substrate protein remaining %: A (0% ≤ substrate protein remaining % ≤ 80%)
[15]
  IC50: 500 to 1000 nM
[12]
  IC50: 10 to 50 nM
[13]
  IKZF2 substrate protein remaining %: A (0% ≤ substrate protein remaining % ≤ 80%)

## O=C1CCC(N2Cc3cc(CN4CC=C(c5cncc(Cl)c5Cl)CC4)ccc3C2=O)C(=O)N1 (stereo not shown) [GT-04558, 3-(5-((4,5-dichloro-3',6'-dihydro-[3,4'-bipyridin]-1'(2'H)-yl)methyl)-1-oxoisoindolin-2-yl)piperidine-2,6-dione]
[1]
  IC50: < 500 nM
[2]
  IKZF3 substrate protein remaining %: A (0% ≤ substrate protein remaining % ≤ 80%)
[3]
  IKZF 1 substrate protein remaining %: A (0% ≤ substrate protein remaining % ≤ 80%)
[4]
  GSPT1 substrate protein remaining %: A (0% ≤ substrate protein remaining % ≤ 80%)
[5]
  CK1a substrate protein remaining %: A (0% ≤ substrate protein remaining % ≤ 80%)
[6]
  IC50: < 1 nM
[7]
  IC50: 1 to 5 nM
[14]
  IC50: 5 to 10 nM
[10]
  IC50: < 1 nM
[11]
  Weel substrate protein remaining %: A (0% ≤ substrate protein remaining % ≤ 80%)
[15]
  IC50: 5 to 10 nM
[12]
  IC50: 1 to 5 nM
[13]
  IKZF2 substrate protein remaining %: A (0% ≤ substrate protein remaining % ≤ 80%)

## O=C1CCC(N2Cc3cc(CN4CC=C(c5ccnc(Cl)c5Cl)CC4)ccc3C2=O)C(=O)N1 (stereo not shown) [GT-04559, 3-(5-((2',3'-dichloro-3,6-dihydro-[4,4'-bipyridin]-1(2H)-yl)methyl)-1-oxoisoindolin-2-yl)piperidine-2,6-dione]
[1]
  IC50: < 500 nM
[2]
  IKZF3 substrate protein remaining %: A (0% ≤ substrate protein remaining % ≤ 80%)
[3]
  IKZF 1 substrate protein remaining %: A (0% ≤ substrate protein remaining % ≤ 80%)
[4]
  GSPT1 substrate protein remaining %: A (0% ≤ substrate protein remaining % ≤ 80%)
[5]
  CK1a substrate protein remaining %: A (0% ≤ substrate protein remaining % ≤ 80%)
[6]
  IC50: 1 to 5 nM
[7]
  IC50: 1 to 5 nM
[14]
  IC50: 10 to 50 nM
[10]
  IC50: 1 to 5 nM
[11]
  Weel substrate protein remaining %: A (0% ≤ substrate protein remaining % ≤ 80%)
[15]
  IC50: 10 to 50 nM
[12]
  IC50: 1 to 5 nM
[13]
  IKZF2 substrate protein remaining %: A (0% ≤ substrate protein remaining % ≤ 80%)
